Test results published in BindingDB's records for doi:10.3109/14756360903468171 (2010).

Each compound was assayed against T1, Peroxisome proliferator-activated receptor gamma (Homo sapiens, UniProt P37231) (assay: Pharmacological In Vitro Assay). Conditions: pH 8.2; 4 °C.
T1 sequence (P37231 whole entry): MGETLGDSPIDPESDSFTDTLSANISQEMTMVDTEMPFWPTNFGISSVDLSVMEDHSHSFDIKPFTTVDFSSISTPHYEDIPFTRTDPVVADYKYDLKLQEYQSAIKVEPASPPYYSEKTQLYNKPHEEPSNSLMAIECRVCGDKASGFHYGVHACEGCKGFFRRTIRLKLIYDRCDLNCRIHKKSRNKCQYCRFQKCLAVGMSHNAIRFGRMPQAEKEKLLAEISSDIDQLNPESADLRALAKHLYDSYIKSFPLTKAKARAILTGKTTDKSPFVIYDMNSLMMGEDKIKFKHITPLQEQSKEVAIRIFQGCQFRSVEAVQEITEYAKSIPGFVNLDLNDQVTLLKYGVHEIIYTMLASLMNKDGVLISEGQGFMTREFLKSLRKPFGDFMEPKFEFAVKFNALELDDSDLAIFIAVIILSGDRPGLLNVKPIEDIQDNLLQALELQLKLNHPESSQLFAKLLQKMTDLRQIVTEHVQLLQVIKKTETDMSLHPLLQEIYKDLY
Protocol: Binding assays were performed in 96-well plate format, using a classical filtration assay with a human full length PPARγ construct (GST-PPAR LBD (25 μg/mL)) expressed in bacteria with some modifications regarding the conditionsof the experiments. The membrane-associated PPARγ was used as the biological source as previously described. Binding buffer consisted of 10 mM Tris/HCl, pH 8.2, containing 50 mM KCl and 1 mM dithiothreitol. Membrane preparations (5 μg/mL) were incubated for 180 min at 4°C in the presence of [3H]rosiglitazone (BRL49653, Amersham) (4 nM) and the tested compounds. Nonspecific binding was defined using an excess of unlabeled rosiglitazone (10 μM). Incubation was terminated by the addition of ice-cold 50 mM Tris/HCl buffer pH 7.4, followed by rapid filtrationunder reduced pressure through Whatman GF/C filter plates presoaked with ice-cold buffer, followed by three successive washes with the same buffer. Radioactivity was measured in a TopCount apparatus (Packard).

Point of comparison: `CCCCCCCCOc1nc2ccccc2cc1C(O)CC#CCCCC(=O)O` (centres undefined) [Sodium 8-hydroxy-8-(2-octyloxy-quinolin-3-yl)-oct-5-ynoate (9c)], Ki 0.378 µM. Against it:
- CCCCCOc1nc2ccc(OC)cc2cc1C(O)CC#CCCCC(=O)O (centres undefined) [Sodium 8-hydroxy-8-(6-methoxy-2-pentyloxy-quinolin-3-yl)-oct-5-ynoate (27a)] — 1.5-fold higher, 0.583 µM
- COCCCOc1nc2ccccc2cc1C(O)CC#CCCCC(=O)OC (centres undefined) [8-Hydroxy-8-[2-(3-methoxy-propoxy)-quinolin-3-yl]-oct-5-ynoic acid methyl ester (8d)] — higher, > 10 µM
- CCCCCOc1nc2ccccc2cc1C(O)CC#CCCCC(=O)NCCO (centres undefined) [8-Hydroxy-8-(2-pentyloxy-quinolin-3-yl)-oct-5-ynoic acid (2-hydroxy-ethyl)-amide (14a)] — higher, > 10 µM
- CCCCCCCCOc1nc2ccccc2cc1C(O)CC#CCCCC(=O)OC (centres undefined) [8-Hydroxy-8-(2-octyloxy-quinolin-3-yl)-oct-5-ynoic acid methyl ester (8c)] — higher, > 10 µM
- CCCCCOc1nc2c(ccc3ccccc32)cc1C(O)CC#CCCCC(=O)O (centres undefined) [Sodium 8-hydroxy-8-(2-pentyloxy-benzo[h]quinolin-3-yl)-oct-5-ynoate (27b)] — higher, > 10 µM
- COc1nc2ccccc2cc1C(O)CC#CCOCC(=O)O (centres undefined) [Sodium [5-hydroxy-5-(2-methoxy-quinolin-3-yl)-pent-2-ynyloxy]-acetate (18b)] — 10-fold higher, 3.81 µM
- CCCCCOc1nc2ccccc2cc1C(O)CC#CCOCC(=O)O (centres undefined) [Sodium [5-hydroxy-5-(2-pentyloxy-quinolin-3-yl)-pent-2-ynyloxy]-acetate (18a)] — 5.1-fold higher, 1.93 µM
- COCCCOc1nc2ccccc2cc1C(O)CC#CCCCC(=O)O (centres undefined) [Sodium 8-hydroxy-8-[2-(3-methoxy-propoxy)-quinolin-3-yl]-oct-5-ynoate (9d)] — higher, > 10 µM
- CCCCCOc1nc2ccccc2cc1C(O)CC#CCCCC(=O)OC (centres undefined) [8-Hydroxy-8-(2-pentyloxy-quinolin-3-yl)-oct-5-ynoic acid methyl ester] — higher, > 10 µM
- COc1nc2ccccc2cc1C(O)CC#CCCCC(=O)O (centres undefined) [Sodium 8-hydroxy-8-(2-methoxy-quinolin-3-yl)-oct-5-ynoate (9b)] — higher, > 10 µM
- CCCCCOc1nc2c(ccc3ccccc32)cc1C(O)CC#CCCCC(=O)OC (centres undefined) [8-Hydroxy-8-(2-pentyloxy-benzo[h]quinolin-3-yl)-oct-5-ynoic acid methyl ester (26b)] — higher, > 10 µM
- COC(=O)CCCC#CCC(O)c1cc2ccccc2nc1OCCCC(F)(F)F (centres undefined) [8-Hydroxy-8-[2-(4,4,4-trifluoro-butoxy)-quinolin-3-yl]-oct-5-ynoic acid methyl ester (8e)] — higher, > 10 µM
- O=C(O)CCCC#CCC(O)c1cc2ccccc2nc1OCCCC(F)(F)F (centres undefined) [Sodium 8-hydroxy-8-[2-(4,4,4-trifluoro-butoxy)-quinolin-3-yl]-oct-5-ynoate (9e)] — higher, > 10 µM
